Laboratory results from ChEMBL document CHEMBL3991601, “The target landscape of clinical kinase drugs” (Science, 2017).
Calls of active or inactive are those of the source. For most assays here, no stated cut-off is given here; in the data, actives have a measured Kd and inactives only a lower limit.

Tests used:
[1] = target: Serine/threonine-protein kinase N2 (Homo sapiens, UniProt Q16513)
[2] = target: T1, Cysteine--tRNA ligase, cytoplasmic (Homo sapiens, UniProt P49589)
T1 sequence (P49589 whole entry): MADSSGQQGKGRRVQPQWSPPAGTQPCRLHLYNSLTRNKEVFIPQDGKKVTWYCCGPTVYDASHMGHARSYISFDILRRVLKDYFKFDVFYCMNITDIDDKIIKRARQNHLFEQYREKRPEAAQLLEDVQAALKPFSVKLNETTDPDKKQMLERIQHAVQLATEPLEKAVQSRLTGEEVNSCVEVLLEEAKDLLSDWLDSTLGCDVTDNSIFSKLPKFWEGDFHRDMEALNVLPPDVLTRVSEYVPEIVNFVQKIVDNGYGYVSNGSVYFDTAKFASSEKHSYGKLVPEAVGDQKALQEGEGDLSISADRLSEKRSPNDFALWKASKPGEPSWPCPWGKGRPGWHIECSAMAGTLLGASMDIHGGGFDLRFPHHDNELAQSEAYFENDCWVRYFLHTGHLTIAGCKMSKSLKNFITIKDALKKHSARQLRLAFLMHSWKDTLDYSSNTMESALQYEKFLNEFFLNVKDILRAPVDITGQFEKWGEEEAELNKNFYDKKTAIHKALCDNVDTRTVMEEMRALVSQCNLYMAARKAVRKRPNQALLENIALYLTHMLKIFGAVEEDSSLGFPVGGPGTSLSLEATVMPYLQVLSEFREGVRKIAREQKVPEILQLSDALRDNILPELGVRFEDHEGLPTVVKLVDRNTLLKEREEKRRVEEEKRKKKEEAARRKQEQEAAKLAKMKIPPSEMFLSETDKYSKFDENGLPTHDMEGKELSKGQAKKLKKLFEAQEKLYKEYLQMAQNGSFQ

[3] = target: Maternal embryonic leucine zipper kinase (Homo sapiens, UniProt Q14680)
[4] = target: T2, STE20-related kinase adapter protein alpha (Homo sapiens, UniProt Q7RTN6)
T2 sequence (Q7RTN6 whole entry): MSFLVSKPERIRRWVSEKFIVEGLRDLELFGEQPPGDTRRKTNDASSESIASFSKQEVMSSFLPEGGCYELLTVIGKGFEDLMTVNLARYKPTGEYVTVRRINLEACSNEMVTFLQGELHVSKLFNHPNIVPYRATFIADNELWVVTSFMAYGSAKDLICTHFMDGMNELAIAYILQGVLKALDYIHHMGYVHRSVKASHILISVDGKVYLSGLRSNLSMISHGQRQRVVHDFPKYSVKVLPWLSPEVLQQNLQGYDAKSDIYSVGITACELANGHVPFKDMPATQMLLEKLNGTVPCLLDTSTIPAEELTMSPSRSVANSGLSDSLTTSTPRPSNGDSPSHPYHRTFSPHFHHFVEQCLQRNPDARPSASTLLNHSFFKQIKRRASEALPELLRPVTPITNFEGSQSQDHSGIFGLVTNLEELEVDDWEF

[5] = target: Serine/threonine-protein kinase PAK 2 (Homo sapiens, UniProt Q13177)
[6] = target: T3, Ribosyldihydronicotinamide dehydrogenase [quinone] (Homo sapiens, UniProt P16083)
T3 sequence (P16083 whole entry): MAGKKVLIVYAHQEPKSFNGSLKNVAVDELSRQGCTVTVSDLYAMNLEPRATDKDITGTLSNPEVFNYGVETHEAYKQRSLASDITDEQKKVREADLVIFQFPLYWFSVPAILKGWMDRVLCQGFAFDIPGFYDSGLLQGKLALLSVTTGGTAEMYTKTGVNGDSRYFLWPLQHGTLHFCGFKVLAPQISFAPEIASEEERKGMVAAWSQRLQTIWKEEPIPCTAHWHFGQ

[7] = target: T4, Serine/threonine-protein kinase Chk1 (Homo sapiens, UniProt O14757)
T4 sequence (O14757 whole entry): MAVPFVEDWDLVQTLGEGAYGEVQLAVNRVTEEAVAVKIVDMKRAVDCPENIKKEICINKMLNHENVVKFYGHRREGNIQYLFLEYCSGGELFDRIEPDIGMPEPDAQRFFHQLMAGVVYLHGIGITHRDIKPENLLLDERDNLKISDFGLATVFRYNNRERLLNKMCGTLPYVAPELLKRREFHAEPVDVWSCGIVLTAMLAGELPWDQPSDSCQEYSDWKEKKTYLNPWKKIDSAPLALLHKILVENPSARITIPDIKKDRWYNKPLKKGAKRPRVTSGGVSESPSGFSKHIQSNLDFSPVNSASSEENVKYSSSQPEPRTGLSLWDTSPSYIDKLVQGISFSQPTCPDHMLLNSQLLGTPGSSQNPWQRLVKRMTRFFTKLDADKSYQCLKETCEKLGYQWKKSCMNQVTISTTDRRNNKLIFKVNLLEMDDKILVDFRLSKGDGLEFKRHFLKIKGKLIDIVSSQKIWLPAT

[8] = target: Eukaryotic translation initiation factor 2-alpha kinase 1 (Homo sapiens, UniProt Q9BQI3)
[9] = target: T5, Mitogen-activated protein kinase 15 (Homo sapiens, UniProt Q8TD08)
T5 sequence (Q8TD08 whole entry): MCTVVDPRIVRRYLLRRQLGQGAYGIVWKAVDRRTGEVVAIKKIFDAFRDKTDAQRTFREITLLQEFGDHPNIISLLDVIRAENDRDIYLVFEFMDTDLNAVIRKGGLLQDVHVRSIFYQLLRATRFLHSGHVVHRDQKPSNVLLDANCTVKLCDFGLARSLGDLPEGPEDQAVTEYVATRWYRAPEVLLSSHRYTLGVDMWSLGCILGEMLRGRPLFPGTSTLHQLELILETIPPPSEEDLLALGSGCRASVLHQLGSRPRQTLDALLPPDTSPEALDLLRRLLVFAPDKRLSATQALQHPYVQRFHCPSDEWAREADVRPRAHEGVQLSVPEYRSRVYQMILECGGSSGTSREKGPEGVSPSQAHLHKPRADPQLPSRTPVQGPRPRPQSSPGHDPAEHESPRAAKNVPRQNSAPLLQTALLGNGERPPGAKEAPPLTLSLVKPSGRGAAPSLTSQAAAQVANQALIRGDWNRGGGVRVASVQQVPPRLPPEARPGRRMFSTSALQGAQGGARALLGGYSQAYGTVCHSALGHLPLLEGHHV

[10] = target: Macrophage-stimulating protein receptor (Homo sapiens, UniProt Q04912)
Sequence of Macrophage-stimulating protein receptor (Q04912 25-304 limits assumed): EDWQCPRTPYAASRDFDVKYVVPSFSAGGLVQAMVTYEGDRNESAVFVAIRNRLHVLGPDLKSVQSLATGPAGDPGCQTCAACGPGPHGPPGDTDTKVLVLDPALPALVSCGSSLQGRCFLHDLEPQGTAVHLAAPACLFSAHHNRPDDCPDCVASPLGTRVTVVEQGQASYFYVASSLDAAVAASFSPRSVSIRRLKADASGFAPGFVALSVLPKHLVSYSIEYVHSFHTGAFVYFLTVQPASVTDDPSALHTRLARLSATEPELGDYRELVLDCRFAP
Sequence of Macrophage-stimulating protein receptor (Q04912 310-1400 limits assumed): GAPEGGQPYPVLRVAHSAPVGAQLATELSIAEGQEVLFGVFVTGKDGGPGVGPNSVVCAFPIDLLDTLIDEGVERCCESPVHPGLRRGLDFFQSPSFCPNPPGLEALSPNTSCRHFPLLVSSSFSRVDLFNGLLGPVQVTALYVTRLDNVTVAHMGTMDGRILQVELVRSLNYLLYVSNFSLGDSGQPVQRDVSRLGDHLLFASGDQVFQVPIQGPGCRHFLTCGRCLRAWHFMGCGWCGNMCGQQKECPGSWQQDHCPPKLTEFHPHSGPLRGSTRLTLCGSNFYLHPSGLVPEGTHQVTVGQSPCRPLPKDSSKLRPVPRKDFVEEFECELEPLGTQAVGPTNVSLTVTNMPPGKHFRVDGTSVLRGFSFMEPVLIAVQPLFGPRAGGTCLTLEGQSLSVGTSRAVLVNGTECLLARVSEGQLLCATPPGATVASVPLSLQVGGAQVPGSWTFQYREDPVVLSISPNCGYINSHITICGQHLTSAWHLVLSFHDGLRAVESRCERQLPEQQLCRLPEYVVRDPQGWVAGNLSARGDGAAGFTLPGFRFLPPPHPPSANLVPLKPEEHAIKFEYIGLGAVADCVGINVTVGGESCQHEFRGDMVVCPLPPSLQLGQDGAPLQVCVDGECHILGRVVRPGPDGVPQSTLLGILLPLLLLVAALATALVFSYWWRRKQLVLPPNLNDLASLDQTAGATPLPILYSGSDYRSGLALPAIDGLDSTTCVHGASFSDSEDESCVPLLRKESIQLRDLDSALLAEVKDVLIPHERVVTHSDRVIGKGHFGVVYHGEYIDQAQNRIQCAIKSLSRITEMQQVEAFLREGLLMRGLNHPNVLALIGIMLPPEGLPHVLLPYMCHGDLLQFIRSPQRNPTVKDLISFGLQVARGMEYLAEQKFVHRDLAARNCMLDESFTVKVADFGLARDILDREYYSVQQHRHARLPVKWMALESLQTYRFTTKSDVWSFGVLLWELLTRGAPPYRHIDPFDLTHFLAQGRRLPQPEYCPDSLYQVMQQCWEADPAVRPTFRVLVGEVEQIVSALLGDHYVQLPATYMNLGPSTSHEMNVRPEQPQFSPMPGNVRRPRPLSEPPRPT

Sequence of Serine/threonine-protein kinase PAK 2 (Q13177 whole entry): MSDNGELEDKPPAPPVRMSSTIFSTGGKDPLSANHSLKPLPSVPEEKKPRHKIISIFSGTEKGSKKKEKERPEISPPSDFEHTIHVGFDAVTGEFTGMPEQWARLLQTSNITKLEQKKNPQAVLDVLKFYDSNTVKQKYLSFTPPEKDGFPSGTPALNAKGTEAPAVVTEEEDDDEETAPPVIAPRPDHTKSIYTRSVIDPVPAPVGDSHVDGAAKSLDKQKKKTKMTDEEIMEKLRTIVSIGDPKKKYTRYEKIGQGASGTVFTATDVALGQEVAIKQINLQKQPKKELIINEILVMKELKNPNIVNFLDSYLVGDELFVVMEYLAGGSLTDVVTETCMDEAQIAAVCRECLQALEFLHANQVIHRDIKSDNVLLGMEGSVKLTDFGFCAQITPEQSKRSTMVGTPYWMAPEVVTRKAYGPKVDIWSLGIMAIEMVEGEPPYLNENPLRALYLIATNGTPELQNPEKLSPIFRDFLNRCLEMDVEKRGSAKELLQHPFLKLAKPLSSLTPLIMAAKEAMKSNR
Sequence of Maternal embryonic leucine zipper kinase (Q14680 whole entry): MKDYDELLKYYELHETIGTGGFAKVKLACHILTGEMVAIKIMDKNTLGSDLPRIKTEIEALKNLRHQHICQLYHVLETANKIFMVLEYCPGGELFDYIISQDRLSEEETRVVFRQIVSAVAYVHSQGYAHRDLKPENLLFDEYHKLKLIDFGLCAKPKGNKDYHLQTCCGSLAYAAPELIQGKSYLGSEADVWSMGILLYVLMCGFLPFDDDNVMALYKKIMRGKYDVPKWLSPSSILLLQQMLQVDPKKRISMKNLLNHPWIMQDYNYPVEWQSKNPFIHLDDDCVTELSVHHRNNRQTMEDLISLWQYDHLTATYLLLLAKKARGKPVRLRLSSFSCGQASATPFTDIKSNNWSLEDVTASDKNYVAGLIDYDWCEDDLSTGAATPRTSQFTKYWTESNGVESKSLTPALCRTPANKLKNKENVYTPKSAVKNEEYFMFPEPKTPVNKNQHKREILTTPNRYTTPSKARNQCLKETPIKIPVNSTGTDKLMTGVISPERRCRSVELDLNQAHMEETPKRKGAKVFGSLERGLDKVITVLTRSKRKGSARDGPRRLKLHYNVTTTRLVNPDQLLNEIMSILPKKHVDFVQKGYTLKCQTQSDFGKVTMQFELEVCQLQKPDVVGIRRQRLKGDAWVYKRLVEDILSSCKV
Sequence of Eukaryotic translation initiation factor 2-alpha kinase 1 (Q9BQI3 whole entry): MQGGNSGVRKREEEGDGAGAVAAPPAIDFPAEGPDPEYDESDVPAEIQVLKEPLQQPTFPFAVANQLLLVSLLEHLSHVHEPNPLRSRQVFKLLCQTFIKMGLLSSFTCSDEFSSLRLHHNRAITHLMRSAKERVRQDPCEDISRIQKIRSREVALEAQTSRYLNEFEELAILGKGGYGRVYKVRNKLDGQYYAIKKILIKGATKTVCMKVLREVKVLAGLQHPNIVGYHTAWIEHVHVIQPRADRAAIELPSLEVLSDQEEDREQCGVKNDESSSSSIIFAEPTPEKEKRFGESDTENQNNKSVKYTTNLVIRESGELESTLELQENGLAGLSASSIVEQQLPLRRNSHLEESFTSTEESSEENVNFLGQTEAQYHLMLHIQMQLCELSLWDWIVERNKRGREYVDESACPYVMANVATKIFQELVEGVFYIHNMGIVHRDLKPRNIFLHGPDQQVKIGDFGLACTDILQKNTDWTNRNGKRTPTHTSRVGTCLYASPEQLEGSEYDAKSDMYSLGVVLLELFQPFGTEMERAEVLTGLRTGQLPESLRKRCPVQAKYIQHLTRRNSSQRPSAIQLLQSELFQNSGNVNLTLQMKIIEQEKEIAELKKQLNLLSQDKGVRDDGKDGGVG
Sequence of Serine/threonine-protein kinase N2 (Q16513 whole entry): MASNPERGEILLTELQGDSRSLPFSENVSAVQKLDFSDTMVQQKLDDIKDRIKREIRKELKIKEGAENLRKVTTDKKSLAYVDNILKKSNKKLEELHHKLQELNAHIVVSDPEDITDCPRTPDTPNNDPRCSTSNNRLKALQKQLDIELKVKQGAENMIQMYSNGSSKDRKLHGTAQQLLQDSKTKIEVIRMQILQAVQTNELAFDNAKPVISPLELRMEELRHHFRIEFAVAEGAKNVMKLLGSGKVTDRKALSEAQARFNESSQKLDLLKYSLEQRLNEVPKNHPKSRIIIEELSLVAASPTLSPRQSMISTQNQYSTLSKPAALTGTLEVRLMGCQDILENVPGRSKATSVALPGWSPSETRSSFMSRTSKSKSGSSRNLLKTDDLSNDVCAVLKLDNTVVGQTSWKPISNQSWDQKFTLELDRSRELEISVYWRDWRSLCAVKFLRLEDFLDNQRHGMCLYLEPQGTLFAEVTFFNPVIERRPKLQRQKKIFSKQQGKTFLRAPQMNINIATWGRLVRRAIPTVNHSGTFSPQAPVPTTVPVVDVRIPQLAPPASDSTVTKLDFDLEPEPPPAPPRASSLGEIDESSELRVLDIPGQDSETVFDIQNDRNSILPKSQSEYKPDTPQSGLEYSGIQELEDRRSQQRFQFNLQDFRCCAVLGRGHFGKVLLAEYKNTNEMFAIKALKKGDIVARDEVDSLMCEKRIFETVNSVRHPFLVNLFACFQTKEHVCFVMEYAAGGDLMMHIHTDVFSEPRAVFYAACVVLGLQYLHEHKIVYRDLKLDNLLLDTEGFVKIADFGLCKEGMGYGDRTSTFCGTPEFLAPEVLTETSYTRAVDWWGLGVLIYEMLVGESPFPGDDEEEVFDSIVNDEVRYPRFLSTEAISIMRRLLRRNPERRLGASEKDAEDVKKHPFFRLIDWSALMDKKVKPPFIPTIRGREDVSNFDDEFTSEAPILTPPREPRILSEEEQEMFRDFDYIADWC

| Kd [1] | Kd [2] | Kd [3] | Kd [4] | Kd [5] | Kd [6] | Kd [7] | Kd [8] | Kd [10] | SMILES | Kd [9] |
| --- | --- | --- | --- | --- | --- | --- | --- | --- | --- | --- |
| > 30 µM (inactive) | > 30 µM (inactive) | > 30 µM (inactive) | > 30 µM (inactive) | > 30 µM (inactive) | > 30 µM (inactive) | > 30 µM (inactive) | > 30 µM (inactive) | > 30 µM (inactive) | CCN1CCN(Cc2ccc(-c3cc4c(N[C@H](C)c5ccccc5)ncnc4[nH]3)cc2)CC1 [AEE-788] | > 30 µM (inactive) |
| > 30 µM (inactive) | > 30 µM (inactive) | > 30 µM (inactive) | > 30 µM (inactive) | > 30 µM (inactive) | > 30 µM (inactive) | > 30 µM (inactive) | > 30 µM (inactive) | > 30 µM (inactive) | CN1CCC(CNc2ccc3ncc(-c4cccc(OC(F)(F)F)c4)n3n2)CC1 [SGI-1776] | > 30 µM (inactive) |
| > 30 µM (inactive) | > 30 µM (inactive) | > 30 µM (inactive) | > 30 µM (inactive) | > 30 µM (inactive) | 15.2 µM (active) | > 30 µM (inactive) | > 30 µM (inactive) | > 30 µM (inactive) | COc1cc(OC)c(/C=C/S(=O)(=O)Cc2ccc(OC)c(NCC(=O)O)c2)c(OC)c1 [RIGOSERTIB] | > 30 µM (inactive) |
| > 30 µM (inactive) | > 30 µM (inactive) | > 30 µM (inactive) | > 30 µM (inactive) | > 30 µM (inactive) | 0.206 µM (active) | > 30 µM (inactive) | > 30 µM (inactive) | > 30 µM (inactive) | C[C@@H](c1ccc2nccn2c1)n1nnc2ncc(-c3cnn(C)c3)nc21 [SAVOLITINIB] | > 30 µM (inactive) |
| > 30 µM (inactive) | > 30 µM (inactive) | > 30 µM (inactive) | > 30 µM (inactive) | > 30 µM (inactive) | > 30 µM (inactive) | > 30 µM (inactive) | > 30 µM (inactive) | > 30 µM (inactive) | CN(C)C(=O)c1cc2cnc(Nc3ccc(N4CCNCC4)cn3)nc2n1C1CCCC1 [RIBOCICLIB] | > 30 µM (inactive) |
| > 30 µM (inactive) | > 30 µM (inactive) | > 30 µM (inactive) | > 30 µM (inactive) | > 30 µM (inactive) | > 30 µM (inactive) | > 30 µM (inactive) | > 30 µM (inactive) | > 30 µM (inactive) | COC(=O)N[C@@H](C)CNc1nccc(-c2cn(C(C)C)nc2-c2cc(Cl)cc(NS(C)(=O)=O)c2F)n1 [ENCORAFENIB] | > 30 µM (inactive) |

The remaining lines, values behind:

| SMILES | Kd [1] | Kd [2] | Kd [3] | Kd [4] | Kd [5] | Kd [6] | Kd [7] | Kd [8] | Kd [10] | Kd [9] |
| --- | --- | --- | --- | --- | --- | --- | --- | --- | --- | --- |
| COc1cc2nccc(Oc3ccc(NC(=O)NC4CC4)c(Cl)c3)c2cc1C(N)=O [LENVATINIB] | > 30 µM (inactive) | > 30 µM (inactive) | > 30 µM (inactive) | > 30 µM (inactive) | > 30 µM (inactive) | 1.52 µM (active) | > 30 µM (inactive) | > 30 µM (inactive) | > 30 µM (inactive) | > 30 µM (inactive) |
| Cc1cc2c(F)c(Oc3ncnn4cc(OC[C@@H](C)OC(=O)[C@H](C)N)c(C)c34)ccc2[nH]1 [BRIVANIB ALANINATE] | > 30 µM (inactive) | > 30 µM (inactive) | > 30 µM (inactive) | > 30 µM (inactive) | > 30 µM (inactive) | > 30 µM (inactive) | > 30 µM (inactive) | > 30 µM (inactive) | > 30 µM (inactive) | > 30 µM (inactive) |
| Cc1ccc(S(=O)(=O)Nc2nc3ccccc3nc2Nc2ccc3nsnc3c2)cc1 | > 30 µM (inactive) | > 30 µM (inactive) | > 30 µM (inactive) | > 30 µM (inactive) | > 30 µM (inactive) | > 30 µM (inactive) | > 30 µM (inactive) | > 30 µM (inactive) | > 30 µM (inactive) | > 30 µM (inactive) |
| CCn1c(=O)c(-c2cc[nH]n2)cc2c(C)nc(N)nc21 [VOXTALISIB] | > 30 µM (inactive) | > 30 µM (inactive) | > 30 µM (inactive) | > 30 µM (inactive) | > 30 µM (inactive) | > 30 µM (inactive) | > 30 µM (inactive) | > 30 µM (inactive) | > 30 µM (inactive) | > 30 µM (inactive) |
| CC(=O)Nc1cccc(-n2c(=O)n(C3CC3)c(=O)c3c(Nc4ccc(I)cc4F)n(C)c(=O)c(C)c32)c1 [TRAMETINIB] | > 30 µM (inactive) | > 30 µM (inactive) | > 30 µM (inactive) | > 30 µM (inactive) | > 30 µM (inactive) | > 30 µM (inactive) | > 30 µM (inactive) | > 30 µM (inactive) | > 30 µM (inactive) | > 30 µM (inactive) |
| CN1CC[C@@H](c2c(O)cc(O)c3c(=O)cc(-c4ccccc4Cl)oc23)[C@@H]1CO | > 30 µM (inactive) | > 30 µM (inactive) | > 30 µM (inactive) | > 30 µM (inactive) | > 30 µM (inactive) | > 30 µM (inactive) | > 30 µM (inactive) | > 30 µM (inactive) | > 30 µM (inactive) | > 30 µM (inactive) |
| O=c1sn(-c2cccc3ccccc23)c(=O)n1Cc1ccccc1 [TIDEGLUSIB] | > 30 µM (inactive) | > 30 µM (inactive) | > 30 µM (inactive) | > 30 µM (inactive) | > 30 µM (inactive) | > 30 µM (inactive) | > 30 µM (inactive) | > 30 µM (inactive) | > 30 µM (inactive) | > 30 µM (inactive) |
| CC[C@H](Nc1ncnc2[nH]cnc12)c1nc2cccc(F)c2c(=O)n1-c1ccccc1 [IDELALISIB] | > 30 µM (inactive) | > 30 µM (inactive) | > 30 µM (inactive) | > 30 µM (inactive) | > 30 µM (inactive) | > 30 µM (inactive) | > 30 µM (inactive) | > 30 µM (inactive) | > 30 µM (inactive) | > 30 µM (inactive) |
